These are literature values, as cited in patent US20240181106A1, “WATER-SOLUBLE PHOTOSENSITIVE COMPOSITION OF PHOTODYNAMIC ENVIRONMENTAL DISINFECTION AND METHOD OF ENVIRONMENTAL DISINFECTION BY USING THE SAME” (NATIONAL CHENG KUNG UNIVERSITY, priority 2022, published 2024).

Bounds are passed on as bounds.

As for `CN(C)c1ccc2nc3ccc(=[N+](C)C)cc-3sc2c1` [methylene blue], the safe single dose (60 kg-weight adult, every 4 hours) is given as 120 mg. In addition, under “human”, the “daily dose not to be exceeded” value is reported as no more than 7 mg/kg daily and the “maximum safe dose administered to a human” value is recorded as 2 mg/kg/single dose.
